Test results: patent publication US20230028880A1, “CD38-BINDING AGENTS AND USES THEREOF” (Biohaven Therapeutics Ltd., priority 2019, published 2023)
Values joined by “and” are separate entries in the source; they are usually repeats but may differ in a detail not shown here. Equal values may be shown once. *1 amine or outer side, *2 acyl side, *3 side chain or, on linkers, in order; H or OH if unused. Bridges are numbered along the chain shown (N, C = ends). Where no end group is shown, it is not given here. [ ]: non-standard residue; d: D form. d(γGlu) = O=C(O)[C@@H](CCC(=O)[*:2])N[*:1]; 12Ado = NCCCCCCCCCCCC(=O)O

Columns and labels:
Daudi cells [1] = test: Ternary binding assay: recruitment of PE-labeled human IgG1k to Daudi cells (flow cytometry, MFI); format: cell-based; conditions: duplicate columns
Protocol: Various technologies can be utilized to assess and/or characterize recruitment of antibodies to target cells, e.g., cancer cells. One such assay is a ternary binding assay. An exemplary protocol is described herein. Compounds were diluted in DMSO (MP 191418) to 1000× the starting concentration used in the assay into a 96 well polypropylene plate (Corning 3357). They were then serially diluted in ½ log increments to generate 8-12 concentrations in DMSO (assay dependent). These DMSO stocks were then step diluted 1/100 into PBS (VWR Cat. #20012043). Step diluted compound range was then added into the polypropylene assay plate 1/10 the volume of the assay volume. Daudi (ATCC CCL-213), a non-adherent cell line, were counted and centrifuged and resuspended at a concentration of 100,000 cells per 90 ul in Flow buffer: 1% BSA (American Bio AB01088-00100); 0.5 mM EDTA (VWR 45001-122); PBS (VWR Cat. #20012043) with 11.1 ug/mL human IgG1k Phycoerythrin labeled (SouthernBiotech #0151K-09 PE). The cells were then added into the polypropylene plate with the step diluted compounds and incubated at 37° C. for 30 min. At the end of the incubation, the cells were centrifuged and washed 2× with How buffer containing 0.5% Tween 20 (BP337-500). Samples were analyzed on a BD FacsCelesta. Mean fluorescence was analyzed using Graphpad Prism and curves were fit using log(inhibitor) vs. response—Variable slope (four parameters).

[2] = tested on: Effector cells (ADCC reporter cells) with Daudi cells; test: ADCC reporter assay: Daudi cells, IVIG and ADCC reporter effector cells (luciferase, RLU); format: cell-based; conditions: IVIG; for Luminescence, ADCC reporter assay: 18 h, duplicate columns; for EC50: ADCC reporter assay
Protocol: Daudi (ATCC CCL-213) cells were resuspended in Opti-MEM (Thermo Fisher Scientific #31985070), counted (Life Technologies Countless II cell counter) and plated (5,000 cells in 25 uL/well; Corning plates: 3917). Compounds w diluted in DMSO (MP 191418) to 1000× the starting concentration used in the assay into a 96 well polypropylene plate (Corning 3357). They were then serially diluted in ½ log increments to generate 8 concentrations in DMSO (assay dependent). These DMSO stocks were then step diluted 1/250 into Opti-MEM. Step diluted compound range was then added into the polypropylene assay plate 25 uL/well. The human antibody solution (Grifols IVIG Fleogogamma #61953-0005-2) was diluted to 40 ug/mL and added 25 uL/well. Effector cells (ADCC reporter cells—Promega kit: G7018) were added 37,500 in 25 uL/well. The assay was then incubated 18 h at 37° C. Following the induction period, the plate was equilibrated to 25° C. followed the addition of the luciferase substrate (75 uL/well, 1 vial in 10 mL of Bio-Glo assay buffer, Promega kit: G7018). The luminescence was measured (Biotek Synergy H1 microplate reader).

Daudi cells [3] = test: KILR ADCC killing assay: KILR-transfected Daudi cells with purified NK cells (% dead cells); format: cell-based; conditions: KILR Daudi cells with purified NK cells, duplicate columns
Excerpt: In some embodiments, CD38-ABT ARMs bind to target cells and antibodies, e.g., human antibodies. In some embodiments, such ternary structures present antibodies to effector cells such as NK cell and bind to, e.g., CD16a receptors. […] Daudi cells were transfected with KILR reporter construct (DiscoverX #97-0002). An attenuated lentivirus was designed to deliver a Moloney Murine Leukemia Virus (MMLV) engineered to drive expression of a housekeeping gene tagged with Enhanced ProLabel (ePL) a beta-Galactosidase (beta-gal) reporter fragment. This construct was designed to remain inside cells. Death leads to the release of the KILR reporter protein into the medium. Detection reagent (DiscoverX #97-0001L) contained the complementing beta-gal reporter fragment enzyme acceptor (EA). The two components combined to generate a chemiluminescent signal.

[4] = target: CD38 on Daudi cells (human) (UniProt P28907); test: ternary binding, flow cytometry: Daudi cells + PE human IgG1k

Row | Molecule | MFI, recruitment of PE-labeled human IgG1k to Daudi cells (Daudi cells [1]; compound 0.03 nM) | MFI, recruitment of PE-labeled human IgG1k to Daudi cells (Daudi cells [1]; compound 0.1 nM) | MFI, recruitment of PE-labeled human IgG1k to Daudi cells (Daudi cells [1]; compound 0.3 nM) | MFI, recruitment of PE-labeled human IgG1k to Daudi cells (Daudi cells [1]; compound 1 nM) | MFI, recruitment of PE-labeled human IgG1k to Daudi cells (Daudi cells [1]; compound 3 nM) | MFI, recruitment of PE-labeled human IgG1k to Daudi cells (Daudi cells [1]; compound 10 nM) | MFI, recruitment of PE-labeled human IgG1k to Daudi cells (Daudi cells [1]; compound 30 nM) | MFI, recruitment of PE-labeled human IgG1k to Daudi cells (Daudi cells [1]; compound 100 nM) | MFI, recruitment of PE-labeled human IgG1k to Daudi cells (Daudi cells [1]; compound 300 nM) | MFI, recruitment of PE-labeled human IgG1k to Daudi cells (Daudi cells [1]; compound 1000 nM) | MFI, recruitment of PE-labeled human IgG1k to Daudi cells (Daudi cells [1]; compound 3000 nM) | Luminescence, ADCC reporter assay ([2]; compound 0.3 nM) | Luminescence, ADCC reporter assay ([2]; compound 1 nM) | Luminescence, ADCC reporter assay ([2]; compound 3 nM) | Luminescence, ADCC reporter assay ([2]; compound 10 nM) | Luminescence, ADCC reporter assay ([2]; compound 30 nM) | Luminescence, ADCC reporter assay ([2]; compound 100 nM) | Luminescence, ADCC reporter assay ([2]; compound 300 nM) | Luminescence, ADCC reporter assay ([2]; compound 1000 nM) | EC50 [2] [nM] | other results
1 | CCCCC[C@@H]1NC(=O)[C@H](CCCNC(=N)N)NC(=O)[C@H](C)NC(=O)CSC[C@@H](C(=O)NCCOCCOCCOCCOCCOCCOCCOCCOCCC(=O)NCCOCCOCCOCCOCCOCCOCCOCCOCCC(=O)N[C@@H](CC(=O)O)C(=O)N[C@H]2CSSC[C@@H](C(=O)N[C@H](C(=O)O)[C@@H](C)O)NC(=O)[C@H](Cc3c[nH]c4ccccc34)NC(=O)[C@H](C(C)C)NC(=O)[C@H](CC(C)C)NC(=O)[C@H](CCC(=O)O)NC(=O)CNC(=O)[C@H](CC(C)C)NC(=O)[C@H](Cc3c[nH]cn3)NC(=O)[C@H](Cc3c[nH]c4ccccc34)NC(=O)[C@H](C)NC2=O)NC(=O)[C@H](CC(=O)O)NC(=O)[C@H](CCCCC)NC(=O)[C@H](Cc2ccc(-c3ccccc3)cc2)NC(=O)[C@H](CC(C)C)NC(=O)[C@H](C(C)C)NC(=O)[C@H](CCC(N)=O)NC(=O)[C@H](CC(=O)O)NC(=O)[C@H](Cc2c[nH]cn2)NC(=O)[C@H](Cc2ccc(O)cc2)NC1=O [I-41] | 4489 and 2739 | 7612 and 4790 | 3076 and 2422 | 5751 and 3841 | 5283 and 6064 | 9033 and 5065 | 10036 and 10734 | 19188 and 14043 | 23096 and 16482 | 13982 and 11893 | 18339 and 21903 | 4814 RLU and 4964 RLU | 6793 RLU and 6656 RLU | 15011 RLU and 15516 RLU | 26140 RLU and 28413 RLU | 35410 RLU and 36310 RLU | 40904 RLU and 39344 RLU | 38409 RLU and 39619 RLU | 29516 RLU and 26828 RLU |  | 
2 | CCCCC[C@@H]1NC(=O)[C@H](CCCNC(=N)N)NC(=O)[C@H](C)NC(=O)CSC[C@@H](C(=O)NCCCC(=O)N[C@@H](CC(=O)O)C(=O)N[C@H]2CSSC[C@@H](C(=O)N[C@H](C(N)=O)[C@@H](C)O)NC(=O)[C@H](Cc3c[nH]c4ccccc34)NC(=O)[C@H](C(C)C)NC(=O)[C@H](CC(C)C)NC(=O)[C@H](CCC(=O)O)NC(=O)CNC(=O)[C@H](CC(C)C)NC(=O)[C@H](Cc3c[nH]cn3)NC(=O)[C@H](Cc3c[nH]c4ccccc34)NC(=O)[C@H](C)NC2=O)NC(=O)[C@H](CC(=O)O)NC(=O)[C@H](CCCCC)NC(=O)[C@H](Cc2ccc(-c3ccccc3)cc2)NC(=O)[C@H](CC(C)C)NC(=O)[C@H](C(C)C)NC(=O)CNC(=O)[C@H](CC(=O)O)NC(=O)[C@H](Cc2c[nH]cn2)NC(=O)[C@H](Cc2ccc(O)cc2)NC1=O [I-30] |  |  |  |  |  |  |  |  |  |  |  |  | 4174 RLU and 4217 RLU | 4269 RLU and 4452 RLU | 11442 RLU and 11535 RLU | 17189 RLU and 17066 RLU | 20600 RLU and 19749 RLU | 22074 RLU and 21976 RLU | 22085 RLU and 21589 RLU | 12 | % dead cells, KILR ADCC killing assay (Daudi cells [3]; compound 1 nM): 14.3% and 14.7%; % dead cells, KILR ADCC killing assay (Daudi cells [3]; compound 3 nM): 14.7% and 15.7%; % dead cells, KILR ADCC killing assay (Daudi cells [3]; compound 10 nM): 14.1%; % dead cells, KILR ADCC killing assay (Daudi cells [3]; compound 100 nM): 17.1% and 18.1%; % dead cells, KILR ADCC killing assay (Daudi cells [3]; compound 300 nM): 19% and 20.6%; % dead cells, KILR ADCC killing assay (Daudi cells [3]; compound 1000 nM): 19.2% and 20%; Luminescence, ADCC reporter assay ([2]; compound 3000 nM): 19456 RLU and 17760 RLU
3 | CCCCC[C@@H]1NC(=O)[C@H](CCCNC(=N)N)NC(=O)[C@H](C)NC(=O)CSC[C@@H](C(=O)NCCOCCOCCOCCOCCOCCOCCOCCOCCC(=O)NCCOCCOCCOCCOCCOCCOCCOCCOCCC(=O)N[C@@H](CC(=O)O)C(=O)N[C@H]2CSSC[C@@H](C(=O)N[C@H](C(=O)O)[C@@H](C)O)NC(=O)[C@H](Cc3c[nH]c4ccccc34)NC(=O)[C@H](C(C)C)NC(=O)[C@H](CC(C)C)NC(=O)[C@H](CCC(=O)O)NC(=O)CNC(=O)[C@H](CC(C)C)NC(=O)[C@H](Cc3c[nH]cn3)NC(=O)[C@H](Cc3c[nH]c4ccccc34)NC(=O)[C@H](C)NC2=O)NC(=O)[C@H](CC(=O)O)NC(=O)[C@H](CCCCC)NC(=O)[C@H](Cc2ccc(-c3ccccc3)cc2)NC(=O)[C@H](CC(C)C)NC(=O)[C@H](C(C)C)NC(=O)[C@H](CC(N)=O)NC(=O)[C@H](CC(=O)O)NC(=O)[C@H](Cc2c[nH]cn2)NC(=O)[C@H](Cc2ccc(O)cc2)NC1=O [I-42] | 7077 and 5990 | 5737 and 4704 | 3879 and 4284 | 4981 and 6900 | 6000 and 5101 | 6189 and 11302 | 9700 and 15077 | 16690 and 17157 | 14190 and 18622 | 20476 and 15023 | 13519 and 15909 | 4468 RLU and 4661 RLU | 13795 RLU and 13686 RLU | 20721 RLU and 20652 RLU | 32317 RLU and 32373 RLU | 36909 RLU and 40202 RLU | 40344 RLU and 39296 RLU | 39826 RLU and 37835 RLU | 27516 RLU and 28425 RLU | 1.4 | 
4 | [d(γGlu)][d(γGlu)][dE](12Ado)[d(γGlu)][d(γGlu)]GGDCAWHLGELVWCT (peptide, part only; not given: PEG8 unit, part only, disulfide 9-19; not fully specified (N-terminus); also: N-terminal PEG8 joins a further peptide chain not given here) [I-28] |  |  |  |  |  |  |  |  |  |  |  |  |  |  |  |  |  |  |  |  | MFI at 1 nM [4]: 216 and 385; MFI at 3 nM [4]: 400 and 751; MFI at 10 nM [4]: 1970 and 1940; MFI at 30 nM [4]: 4030 and 4740; MFI at 100 nM [4]: 5110 and 5380; MFI at 300 nM [4]: 6240 and 5320; MFI at 1000 nM [4]: 5150 and 5380; MFI at 3000 nM [4]: 5220 and 5330
